Test results taken from ChEMBL document CHEMBL1201862, “PubChem BioAssay data set” (2004).
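Protocol summary: plate cells (96-well), add compound at 5 concentrations, incubate 48 h, interpolate endpoints linearly. GI50 = concentration required for 50% inhibition of growth.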 Active and inactive are the calls of the source. Cut-off read from the data, not from the text of the source: active = GI50 up to about 1.1 µM and inactive = higher. Positions of bridges follow the written chain, without caps; N, C: chain ends. Residues, ends and D or L forms follow the SMILES beside them.

Columns and labels:
Experiment in all cases: NCI anticancer screen, dose series, 48 h
DU-145 = test system: DU-145
MDA-MB-231 = test system: MDA-MB-231
SK-MEL-5 = test system: SK-MEL-5
SK-OV-3 = test system: SK-OV-3
NCI-H460 = test system: NCI-H460
TK-10 = test system: TK-10
SF-539 = test system: SF-539
A549 = test system: A549
HL-60 = test system: HL-60
RPMI-8226 = test system: RPMI-8226
LOX IMVI = test system: LOX IMVI
OVCAR-8 = test system: OVCAR-8
OVCAR-5 = test system: OVCAR-5
Malme-3M = test system: Malme-3M
NCI-H226 = test system: NCI-H226
IGROV-1 = test system: IGROV-1
HCT-116 = test system: HCT-116
MDA-N = test system: MDA-N
HCC 2998 = test system: HCC 2998
M14 = test system: M14
SNB-19 = test system: SNB-19
CAKI-1 = test system: CAKI-1
CCRF-CEM = test system: CCRF-CEM
SNB-75 = test system: SNB-75
A498 = test system: A498
HCT-15 = test system: HCT-15
BT-549 = test system: BT-549
SF-295 = test system: SF-295
NCI-H23 = test system: NCI-H23
HOP-92 = test system: HOP-92
K562 = test system: K562
SN12C = test system: SN12C
U-251 = test system: U-251
OVCAR-3 = test system: OVCAR-3
MOLT-4 = test system: MOLT-4
HOP-62 = test system: HOP-62
PC-3 = test system: PC-3
RXF 393 = test system: RXF 393
HT-29 = test system: HT-29
SR = test system: SR
SK-MEL-28 = test system: SK-MEL-28
UO-31 = test system: UO-31
Hs-578T = test system: Hs-578T
KM12 = test system: KM12
786-0 = test system: 786-0
NCI-H522 = test system: NCI-H522
SW-620 = test system: SW-620
T47D = test system: T47D
EKVX = test system: EKVX
MDA-MB-435 = test system: MDA-MB-435
UACC-62 = test system: UACC-62
ACHN = test system: ACHN
SK-MEL-2 = test system: SK-MEL-2
SF-268 = test system: SF-268
UACC-257 = test system: UACC-257
MCF7 = test system: MCF7
OVCAR-4 = test system: OVCAR-4
COLO 205 = test system: COLO 205
NCI/ADR-RES = test system: NCI/ADR-RES

CC(=O)OCC12C(OC(C)=O)C(=O)C3C(OC(C)=O)C14OC3(C)COC(=O)c1cccnc1C(C)C(C)C(=O)OC(C(OC(C)=O)C2OC(C)=O)C4(C)O (stereo unspecified)
GI50 (DU-145): > 100 µM (inactive) | GI50 (MDA-MB-231): > 100 µM (inactive) | GI50 (SK-MEL-5): > 100 µM (inactive) | GI50 (SK-OV-3): > 100 µM (inactive) | GI50 (NCI-H460): > 100 µM (inactive) | GI50 (TK-10): > 100 µM (inactive) | GI50 (SF-539): > 100 µM (inactive) | GI50 (A549): > 100 µM (inactive) | GI50 (HL-60): > 100 µM (inactive) | GI50 (RPMI-8226): > 100 µM (inactive) | GI50 (LOX IMVI): > 100 µM (inactive) | GI50 (OVCAR-8): > 100 µM (inactive) | GI50 (OVCAR-5): > 100 µM (inactive) | GI50 (Malme-3M): > 100 µM (inactive) | GI50 (NCI-H226): > 100 µM (inactive) | GI50 (IGROV-1): > 100 µM (inactive) | GI50 (HCT-116): > 100 µM (inactive) | GI50 (MDA-N): > 100 µM (inactive) | GI50 (HCC 2998): > 100 µM (inactive) | GI50 (M14): > 100 µM (inactive) | GI50 (SNB-19): > 100 µM (inactive) | GI50 (CAKI-1): > 100 µM (inactive) | GI50 (CCRF-CEM): > 100 µM (inactive) | GI50 (SNB-75): > 100 µM (inactive) | GI50 (A498): > 100 µM (inactive) | GI50 (HCT-15): > 100 µM | GI50 (BT-549): > 100 µM (inactive) | GI50 (SF-295): > 100 µM (inactive) | GI50 (NCI-H23): > 100 µM (inactive) | GI50 (HOP-92): > 100 µM (inactive) | GI50 (K562): > 100 µM (inactive) | GI50 (SN12C): > 100 µM (inactive) | GI50 (U-251): > 100 µM (inactive) | GI50 (OVCAR-3): > 100 µM (inactive) | GI50 (MOLT-4): 52.2 µM (inactive) | GI50 (HOP-62): > 100 µM (inactive) | GI50 (PC-3): > 100 µM (inactive) | GI50 (RXF 393): > 100 µM (inactive) | GI50 (HT-29): > 100 µM (inactive) | GI50 (SR): 42.6 µM (inactive) | GI50 (SK-MEL-28): > 100 µM (inactive) | GI50 (UO-31): > 100 µM (inactive) | GI50 (Hs-578T): > 100 µM (inactive) | GI50 (KM12): > 100 µM (inactive) | GI50 (786-0): > 100 µM (inactive) | GI50 (NCI-H522): > 100 µM (inactive) | GI50 (SW-620): > 100 µM (inactive) | GI50 (T47D): > 100 µM (inactive) | GI50 (EKVX): > 100 µM (inactive) | GI50 (MDA-MB-435): > 100 µM (inactive) | GI50 (UACC-62): > 100 µM (inactive) | GI50 (ACHN): > 100 µM (inactive) | GI50 (SK-MEL-2): > 100 µM (inactive) | GI50 (SF-268): > 100 µM (inactive) | GI50 (UACC-257): > 100 µM (inactive) | GI50 (MCF7): > 100 µM (inactive) | GI50 (OVCAR-4): > 100 µM (inactive) | GI50 (COLO 205): > 100 µM (inactive)

CCC(C)C1NC(=O)C(CC(C)C)NC(=O)C(C(C)C)NC(=O)C2CSSCC(NC1=O)C(=O)N2 (stereo unspecified) (cyclo(CCVLI); disulfide 1-2; configuration not given here)
GI50 (DU-145): 0.156 µM (active) | GI50 (MDA-MB-231): 0.103 µM (active) | GI50 (SK-MEL-5): 0.153 µM (active) | GI50 (NCI-H460): 0.116 µM (active) | GI50 (TK-10): 0.687 µM (active) | GI50 (SF-539): 0.144 µM (active) | GI50 (A549): 0.177 µM (active) | GI50 (HL-60): 0.155 µM (active) | GI50 (RPMI-8226): 0.0262 µM (active) | GI50 (LOX IMVI): 0.0573 µM (active) | GI50 (OVCAR-8): 0.194 µM (active) | GI50 (OVCAR-5): 0.16 µM (active) | GI50 (IGROV-1): 0.165 µM (active) | GI50 (HCT-116): 0.0498 µM (active) | GI50 (MDA-N): 0.184 µM (active) | GI50 (HCC 2998): 0.082 µM (active) | GI50 (M14): 0.277 µM (active) | GI50 (SNB-19): 0.166 µM (active) | GI50 (CAKI-1): 1.74 µM (inactive) | GI50 (CCRF-CEM): 0.0228 µM (active) | GI50 (SNB-75): 0.112 µM (active) | GI50 (HCT-15): 1.86 µM | GI50 (BT-549): 0.198 µM (active) | GI50 (SF-295): 0.182 µM (active) | GI50 (NCI-H23): 0.138 µM (active) | GI50 (HOP-92): 0.121 µM (active) | GI50 (SN12C): 0.192 µM (active) | GI50 (U-251): 0.0385 µM (active) | GI50 (OVCAR-3): 0.187 µM (active) | GI50 (MOLT-4): 0.0165 µM (active) | GI50 (HOP-62): 0.186 µM (active) | GI50 (PC-3): 0.147 µM (active) | GI50 (HT-29): 0.177 µM (active) | GI50 (SR): 0.178 µM (active) | GI50 (SK-MEL-28): 0.122 µM (active) | GI50 (UO-31): 2.16 µM (inactive) | GI50 (Hs-578T): 0.043 µM (active) | GI50 (KM12): 0.0507 µM (active) | GI50 (786-0): 0.157 µM (active) | GI50 (NCI-H522): 0.142 µM (active) | GI50 (SW-620): 0.16 µM (active) | GI50 (T47D): 0.0305 µM (active) | GI50 (NCI/ADR-RES): 2.55 µM (inactive) | GI50 (EKVX): 0.15 µM (active) | GI50 (MDA-MB-435): 0.194 µM (active) | GI50 (UACC-62): 0.0904 µM (active) | GI50 (ACHN): 0.458 µM (active) | GI50 (SK-MEL-2): 0.142 µM (active) | GI50 (SF-268): 0.0387 µM (active) | GI50 (UACC-257): 0.141 µM (active) | GI50 (MCF7): 0.0318 µM (active) | GI50 (OVCAR-4): 0.18 µM (active) | GI50 (COLO 205): 0.0991 µM (active)
